Data reported in patent publication US20260007727A1, “DRUG THAT PROMOTES HEMOSTASIS” (BIOMEDIZINISCHE FORSCHUNG & BIO-PRODUKTE GMBH, priority 2022, published 2026).
Several values for one entry are separate records, joined by “and”; a condition that tells them apart may be missing. Equal entries are not always repeated.

Tested on: rivaroxaban rabbit model
Assay: reversal of anticoagulation in a rivaroxaban rabbit model (claw cut)
Type: in vivo, New Zealand White rabbits
Description: In doing so, anesthetized New Zealand White rabbits were treated with the factor Xa inhibitor rivaroxaban to achieve anticoagulation. The increased tendency to bleed associated with anticoagulation was determined by cutting the claws. Upon intravenous administration of prethrombin-1, the blood loss was measured again after the claws had been cut.

O=C(NC[C@H]1CN(c2ccc(N3CCOCC3=O)cc2)C(=O)O1)c1ccc(Cl)s1 [rivaroxaban]
Blood loss after rivaroxaban (rivaroxaban 7 μg/kg body weight): 22.3 mg | Blood loss after rivaroxaban (rivaroxaban 14 μg/kg body weight): 11.3 mg | Blood loss after rivaroxaban (rivaroxaban 35 μg/kg body weight): 30.4 mg | Blood loss after rivaroxaban (rivaroxaban 70 μg/kg body weight, individual rabbits): 165.0 mg and 98.7 mg and 20.8 mg and 51.8 mg and 77.4 mg and 108.5 mg and 51.2 mg
